pEC50: −log10 of the molar value.
Assays:
Rattus norvegicus [1] = assay: Increase in O-protein AUC in rat brain at 10 mg/kg, po measured upto 24 hrs; type: ADME, organism-based; conditions: in vivo
[2] = Tmax in rat brain at 10 mg/kg, po measured upto 24 hrs; type: ADME, organism-based
MDR1 = assay: Apparent permeability in pig LLC-PK1 cells transfected with MDR1; type: ADME, cell-based, Sus scrofa
Protein O-GlcNAcase = target: T1, Protein O-GlcNAcase (Rattus norvegicus, UniProt Q8VIJ5); assay: Inhibition of OGA in rat PC12 cells assessed as OGlcNAcylated protein level incubated for 24 hrs by ELISA; type: cell-based
T1 sequence (Q8VIJ5 whole entry): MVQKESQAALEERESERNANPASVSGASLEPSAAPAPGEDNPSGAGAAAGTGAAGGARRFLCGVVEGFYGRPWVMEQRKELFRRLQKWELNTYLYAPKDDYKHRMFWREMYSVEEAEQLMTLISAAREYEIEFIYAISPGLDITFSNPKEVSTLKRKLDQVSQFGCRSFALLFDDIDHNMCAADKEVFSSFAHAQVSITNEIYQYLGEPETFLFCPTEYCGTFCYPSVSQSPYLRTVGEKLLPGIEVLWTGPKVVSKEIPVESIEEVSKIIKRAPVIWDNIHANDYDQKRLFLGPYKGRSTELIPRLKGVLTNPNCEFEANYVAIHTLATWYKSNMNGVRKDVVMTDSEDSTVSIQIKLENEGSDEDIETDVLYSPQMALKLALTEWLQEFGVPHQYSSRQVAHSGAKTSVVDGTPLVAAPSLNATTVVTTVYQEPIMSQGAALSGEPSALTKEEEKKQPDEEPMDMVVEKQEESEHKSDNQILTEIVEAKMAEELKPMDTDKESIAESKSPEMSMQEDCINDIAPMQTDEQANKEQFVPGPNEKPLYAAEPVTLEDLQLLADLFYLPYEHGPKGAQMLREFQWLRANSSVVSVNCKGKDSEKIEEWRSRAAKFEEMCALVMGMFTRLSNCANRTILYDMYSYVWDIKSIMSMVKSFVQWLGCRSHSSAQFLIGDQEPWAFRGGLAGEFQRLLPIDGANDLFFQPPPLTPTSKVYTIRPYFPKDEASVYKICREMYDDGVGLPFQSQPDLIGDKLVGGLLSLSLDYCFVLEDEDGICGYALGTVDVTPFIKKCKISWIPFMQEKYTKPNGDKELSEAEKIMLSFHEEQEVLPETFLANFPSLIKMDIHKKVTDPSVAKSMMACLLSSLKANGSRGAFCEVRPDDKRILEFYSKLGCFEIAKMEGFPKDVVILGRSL

[3] = Clearance in Wistar Han rat at 2 mg/kg, iv; type: ADME, organism-based; conditions: in vivo
[4] = Half life in Wistar Han rat at 2 mg/kg, iv; type: ADME, organism-based; conditions: in vivo
Rattus norvegicus [5] = assay: Elevation of O-protein in rat brain at 3 mg/kg, po measured after 8 hrs relative to control; type: functional
[6] = Drug uptake in rat brain at 3 mg/kg, po measured after 8 hrs; type: ADME, organism-based; conditions: in vivo
[7] = Half life in Beagle dog at 1 mg/kg, iv; type: ADME, organism-based, Canis lupus familiaris; conditions: in vivo
[8] = Fraction unbound in rhesus monkey plasma at 1 uM by equilibrium dialysis; type: ADME, cell-free, Macaca mulatta
[9] = Clearance in rhesus monkey at 1 mg/kg, iv; type: ADME, organism-based, Macaca mulatta; conditions: in vivo
[10] = Half life in rhesus monkey at 1 mg/kg, iv; type: ADME, organism-based, Macaca mulatta; conditions: in vivo
[11] = Oral bioavailability in rhesus monkey at 3 mg/kg; type: ADME, organism-based, Macaca mulatta; conditions: in vivo
Cytochrome P450 2B6 = target: T2, Cytochrome P450 2B6 (Homo sapiens, UniProt P20813); assay: Induction of CYP2B6 in human hepatocytes upto 20 uM; type: ADME, cell-based
T2 sequence (P20813 whole entry): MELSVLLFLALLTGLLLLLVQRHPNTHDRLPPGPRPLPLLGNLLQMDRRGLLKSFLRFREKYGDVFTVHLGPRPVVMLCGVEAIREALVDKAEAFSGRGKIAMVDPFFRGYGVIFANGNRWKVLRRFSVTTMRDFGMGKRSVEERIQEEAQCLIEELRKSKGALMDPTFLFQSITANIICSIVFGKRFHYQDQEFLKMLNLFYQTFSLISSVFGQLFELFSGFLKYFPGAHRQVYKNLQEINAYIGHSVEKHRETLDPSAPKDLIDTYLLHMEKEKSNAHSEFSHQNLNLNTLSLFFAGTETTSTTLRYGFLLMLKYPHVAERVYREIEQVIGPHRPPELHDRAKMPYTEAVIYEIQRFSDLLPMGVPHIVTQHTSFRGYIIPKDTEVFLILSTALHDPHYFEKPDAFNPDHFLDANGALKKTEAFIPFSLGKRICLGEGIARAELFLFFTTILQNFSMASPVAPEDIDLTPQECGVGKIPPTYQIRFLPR

Cytochrome P450 1A2 = target: T3, Cytochrome P450 1A2 (Homo sapiens, UniProt P05177); assay: Induction of CYP1A2 in human hepatocytes upto 20 uM; type: ADME, cell-based
T3 sequence (P05177 whole entry): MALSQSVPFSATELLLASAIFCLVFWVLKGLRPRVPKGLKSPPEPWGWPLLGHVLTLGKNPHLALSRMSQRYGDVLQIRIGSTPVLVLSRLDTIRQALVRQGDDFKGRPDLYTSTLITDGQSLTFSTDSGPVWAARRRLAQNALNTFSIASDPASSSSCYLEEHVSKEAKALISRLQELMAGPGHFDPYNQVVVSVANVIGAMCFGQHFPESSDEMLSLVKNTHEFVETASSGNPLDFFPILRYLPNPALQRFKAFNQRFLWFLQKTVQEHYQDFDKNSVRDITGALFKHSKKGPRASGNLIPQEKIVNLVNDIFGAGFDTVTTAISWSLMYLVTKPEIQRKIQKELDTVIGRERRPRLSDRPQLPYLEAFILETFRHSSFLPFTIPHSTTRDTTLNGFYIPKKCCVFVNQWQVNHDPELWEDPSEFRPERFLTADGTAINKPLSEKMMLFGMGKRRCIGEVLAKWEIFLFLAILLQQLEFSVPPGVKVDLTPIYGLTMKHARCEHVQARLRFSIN

[12] = Protein binding in dog plasma; type: ADME, cell-free, Canis lupus familiaris; conditions: read-out: PPB
[13] = Protein binding in monkey plasma; type: ADME, cell-free, Macaca mulatta; conditions: rhesus monkey, read-out: PPB
[14] = Ratio of drug level in human blood to plasma; type: ADME, cell-free; conditions: whole blood
[15] = Stability in rat hepatocytes assessed as parent compound remaining at 10 uM incubated for 120 mins; type: ADME, cell-based, Hepatocyte; conditions: read-out: Stability
[16] = Stability in dog hepatocytes assessed as parent compound remaining at 10 uM incubated for 120 mins; type: ADME, cell-based, Canis lupus familiaris, Hepatocyte; conditions: read-out: Stability
[17] = Stability in human hepatocytes assessed as parent compound remaining at 10 uM incubated for 120 mins; type: ADME, cell-based, Hepatocyte; conditions: read-out: Stability
IKr (KCNH2) = IKr (KCNH2) (Homo sapiens, UniProt Q12809); assay: Inhibition of IKr (unknown origin) at 30 uM
[18] = Cmax in telemetered rat at 380 mg/kg, po; type: ADME, organism-based; parameters: dose 380 mg/kg, route oral; conditions: in vivo
Canis familiaris = assay: Hemodynamic activity in telemetered dog assessed as change in EKG parameter at 300 mg/kg, po; type: ADME, organism-based, Canis lupus familiaris; conditions: in vivo
[19] = Toxicity in rat assessed as change in physical signs at 1000 mg/kg, po administered for 7 days and measured on day 8; type: organism-based; conditions: in vivo, 168 h
[20] = Cmax in rat assessed as change in histomorphology at 1000 mg/kg, po administered for 7 days and measured on day 8; type: ADME, organism-based; parameters: dose 1000 mg/kg, route oral; conditions: in vivo

IKr (KCNH2), sequence (Q12809 whole entry): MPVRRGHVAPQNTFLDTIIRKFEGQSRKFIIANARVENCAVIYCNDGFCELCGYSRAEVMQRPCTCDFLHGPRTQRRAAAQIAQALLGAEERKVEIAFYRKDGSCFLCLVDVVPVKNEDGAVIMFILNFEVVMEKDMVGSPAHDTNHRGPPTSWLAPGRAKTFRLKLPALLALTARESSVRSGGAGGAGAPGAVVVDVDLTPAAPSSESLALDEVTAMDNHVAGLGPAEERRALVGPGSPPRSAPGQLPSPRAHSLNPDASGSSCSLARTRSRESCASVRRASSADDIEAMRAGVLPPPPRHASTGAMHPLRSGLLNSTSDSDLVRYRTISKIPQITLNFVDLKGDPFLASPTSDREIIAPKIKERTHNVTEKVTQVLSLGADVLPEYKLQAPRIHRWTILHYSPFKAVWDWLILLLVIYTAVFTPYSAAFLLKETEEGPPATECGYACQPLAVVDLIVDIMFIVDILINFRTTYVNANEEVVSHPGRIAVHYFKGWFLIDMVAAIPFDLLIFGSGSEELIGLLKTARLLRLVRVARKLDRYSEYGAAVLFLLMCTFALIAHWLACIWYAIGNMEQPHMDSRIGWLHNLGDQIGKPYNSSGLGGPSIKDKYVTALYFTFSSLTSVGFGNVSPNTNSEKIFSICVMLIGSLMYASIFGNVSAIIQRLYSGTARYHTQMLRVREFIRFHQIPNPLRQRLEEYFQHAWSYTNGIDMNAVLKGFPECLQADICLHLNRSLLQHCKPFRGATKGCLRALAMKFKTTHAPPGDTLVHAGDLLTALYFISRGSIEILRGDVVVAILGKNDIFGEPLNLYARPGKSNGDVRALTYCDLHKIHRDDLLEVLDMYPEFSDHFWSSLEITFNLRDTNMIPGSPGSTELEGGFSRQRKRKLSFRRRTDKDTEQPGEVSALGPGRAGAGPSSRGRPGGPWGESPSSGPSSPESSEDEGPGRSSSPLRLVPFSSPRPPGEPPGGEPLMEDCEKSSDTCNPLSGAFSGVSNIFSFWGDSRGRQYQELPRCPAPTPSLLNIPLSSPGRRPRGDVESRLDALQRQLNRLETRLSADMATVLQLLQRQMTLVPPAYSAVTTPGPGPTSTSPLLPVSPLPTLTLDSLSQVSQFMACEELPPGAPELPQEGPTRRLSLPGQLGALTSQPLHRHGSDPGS

fold change (FC) (Rattus norvegicus [1]): 31.42 | Tmax [2]: 8 h | Papp (MDR1): 6.4 ×10⁻⁶ cm/s | pEC50 (Protein O-GlcNAcase): 7.28 | clearance [3]: 36.7 mL/min/kg | half-life [4]: 1.9 h | Drug uptake [6]: 0.219 nmol/g | half-life [7]: 2.3 h | fraction unbound at 1 µM [8]: > 0.99 | clearance [9]: 26.7 mL/min/kg | half-life [10]: 1.4 h | bioavailability [11]: 9% | Activity (Cytochrome P450 2B6): Not Active | Activity (Cytochrome P450 1A2): Not Active | fraction unbound [12]: > 0.95 | fraction unbound [13]: > 0.95 | blood plasma ratio [14]: 0.9 to 1.1 | remaining at 2 h, 10 µM [15]: 96% | remaining at 2 h, 10 µM [16]: 91% | remaining at 2 h, 10 µM [17]: 90% | Cmax [20]: 226 µM
Structure (SMILES): CCNC1=N[C@@H]2[C@@H](O)[C@H](O)[C@@H](C(F)F)O[C@@H]2S1
fold change (FC) (Rattus norvegicus [5]): 2.06 | inhibition at 30 µM (IKr (KCNH2)): < 50% | Cmax [18]: 110 µM | Activity (Canis familiaris): Non-Toxic | Activity [19]: Non-Toxic
